Assay results: the supplement of paper PMC6045584
± gives the standard deviation of the averaged measurements.

Legend:
[1] = compound: T1, C=CC(=O)Nc1cc2c(Nc3ccc(F)c(Cl)c3)ncnc2cc1OCCCN1CCOCC1 [CANERTINIB]; experiment: area under dose-response curve of surviving fraction (unscaled, Aref=0) (surviving fraction x log10(nM)); higher = more resistant; conditions: exposure time: 5 days; dose range 0.5-1000 nM
Summary of the method: (§1)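 Three screens per tumour cell line were run in 384-well plates at eight inhibitor concentrations from 0.5 to 1000 nM over five days. Surviving fractions, from CellTiter-Glo luminescence normalised to DMSO-only wells, were fitted with 3-parameter logistic curves in the drc R package. The reported area under the curve is the unscaled activity area. It spans log10 dose, and Aref is 0.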

[2] = compound: Cn1cc(C2=Nc3cc(NC(=O)C(N)C4CCCCC4)cc4c3C2=CNNC4=O)cn1; experiment: as above; conditions: exposure time: 5 days; dose range 0.5-1000 nM
Summary of the method: as §1

[3] = compound: T2, CC[C@@H]1C(=O)N(C)c2cnc(Nc3ccc(C(=O)NC4CCN(C)CC4)cc3OC)nc2N1C1CCCC1 [BI-2536]; experiment: as above; conditions: exposure time: 5 days; dose range 0.5-1000 nM
Summary of the method: as §1

[4] = compound: T3, CC1(C)CC(=O)c2c(C(F)(F)F)nn(-c3ccc(C(N)=O)c(N[C@H]4CC[C@H](OC(=O)CN)CC4)c3)c2C1 [SNX-5422]; experiment: as above; conditions: exposure time: 5 days; dose range 0.5-1000 nM
Summary of the method: as §1

[5] = compound: CN(C)C/C=C/C(=O)Nc1cc2c(Nc3ccc(F)c(Cl)c3)ncnc2cc1O[C@H]1CCOC1 [AFATINIB]; experiment: as above; conditions: exposure time: 5 days; dose range 0.5-1000 nM
Summary of the method: as §1

[6] = compound: CCCCCCCCCCCCCCCC(=O)Nc1ccn([C@@H]2O[C@H](CO)[C@@H](O)[C@@H]2C#N)c(=O)n1 [SAPACITABINE]; experiment: as above; conditions: exposure time: 5 days; dose range 0.5-1000 nM
Summary of the method: as §1

[7] = compound: CNC(=O)c1ccc(N2C(=S)N(c3ccc(C#N)c(C(F)(F)F)c3)C(=O)C2(C)C)cc1F [MDV3100]; experiment: as above; conditions: exposure time: 5 days; dose range 0.5-1000 nM
Summary of the method: as §1

[8] = compound: Nc1nc2[nH]cnc2c(=S)[nH]1 [TIOGUANINE]; experiment: as above; conditions: exposure time: 5 days; dose range 0.5-1000 nM
Summary of the method: as §1

[9] = compound: T1, CANERTINIB; experiment: surviving fraction relative to DMSO-only wells; higher = less growth inhibition; conditions: exposure time: 5 days
Summary of the method: (§2)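 A line counted only if its three screens reached replicate Pearson r >0.7 and median Z' >0.3. Tumour cells in log phase were seeded at 250–500 per well in 384-well plates and, after 24 hours, kept in continuous contact with inhibitors at 0.5, 1, 5, 10, 50, 100, 500 and 1000 nM for five days. Surviving fraction was taken from CellTiter-Glo luminescence relative to the median of DMSO-only wells.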

[10] = compound: Cn1cc(C2=Nc3cc(NC(=O)C(N)C4CCCCC4)cc4c3C2=CNNC4=O)cn1; experiment: as above; conditions: exposure time: 5 days
Summary of the method: as §2

[11] = compound: T2, BI-2536; experiment: as above; conditions: exposure time: 5 days
Summary of the method: as §2

[12] = compound: T3, SNX-5422; experiment: as above; conditions: exposure time: 5 days
Summary of the method: as §2

## MDAMB361 BREAST
[1]
  area under dose-response curve: 2.35
[2]
  area under dose-response curve: 1.88
[3]
  area under dose-response curve: 1.68
[4]
  area under dose-response curve: 2.27
[5]
  area under dose-response curve: 2.35
[6]
  area under dose-response curve: 2.49
[7]
  area under dose-response curve: 2.85
[8]
  area under dose-response curve: 2.95
[9]; 0.5 nM
  surviving fraction: 0.704 ± 0.05
[9]; 1 nM
  surviving fraction: 0.718 ± 0.16
[9]; 5 nM
  surviving fraction: 0.642 ± 0.011
[9]; 10 nM
  surviving fraction: 0.674 ± 0.078
[9]; 50 nM
  surviving fraction: 0.74 ± 0.064
[9]; 100 nM
  surviving fraction: 0.832 ± 0.092
[9]; 500 nM
  surviving fraction: 0.691 ± 0.067
[9]; 1000 nM
  surviving fraction: 0.682 ± 0.053
[10]; 0.5 nM
  surviving fraction: 0.751 ± 0.014
[10]; 1 nM
  surviving fraction: 0.706 ± 0.065
[10]; 5 nM
  surviving fraction: 0.71 ± 0.023
[10]; 10 nM
  surviving fraction: 0.656 ± 0.061
[10]; 50 nM
  surviving fraction: 0.456 ± 0.028
[10]; 100 nM
  surviving fraction: 0.399 ± 0.032
[10]; 500 nM
  surviving fraction: 0.43 ± 0.013
[10]; 1000 nM
  surviving fraction: 0.49 ± 0.013
[11]; 0.5 nM
  surviving fraction: 0.674 ± 0.046
[11]; 1 nM
  surviving fraction: 0.617 ± 0.026
[11]; 5 nM
  surviving fraction: 0.578 ± 0.051
[11]; 10 nM
  surviving fraction: 0.637 ± 0.0066
[11]; 50 nM
  surviving fraction: 0.565 ± 0.026
[11]; 100 nM
  surviving fraction: 0.517 ± 0.013
[11]; 500 nM
  surviving fraction: 0.245 ± 0.0072
[11]; 1000 nM
  surviving fraction: 0.21 ± 0.028
[12]; 0.5 nM
  surviving fraction: 0.884 ± 0.064
[12]; 1 nM
  surviving fraction: 0.974 ± 0.14
[12]; 5 nM
  surviving fraction: 0.76 ± 0.043
[12]; 10 nM
  surviving fraction: 0.816 ± 0.037
